Test results reported in publication PMC4912613, “A broad analysis of resistance development in the malaria parasite” (Nature Communications, 2016).
Read-outs that look alike come from different tables or passages of the source.

Experiments:
[1] = system: P. berghei exoerythrocytic forms; test: Liver-stage P. berghei hepatocyte invasion and development assay (luminescence, HepG2); type: cell-based, Plasmodium berghei; details: for EC50: Plasmodium berghei; for EC50 fold shift compared to asexual stage: Liver Stage EC50: liver stage EC50 / 3D7 EC50
Outline: (§1)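 Duplicate 12-point dose curves, starting at 5 μM or 50 μM, gave EC50s for both parasite and host toxicity. Compound was added to human HepG2 hepatocytes 2 h before infection with freshly dissected P. berghei sporozoites. Surviving liver-stage forms were quantified by luminescence after 48 h.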

HepG2 = test: Hepatocyte toxicity; type: cell-based, human; details: for Hepatocyte Toxicity: HepG2; for EC50 fold shift compared to asexual stage: Hepatocyte Toxicity: hepatocyte toxicity / 3D7 EC50; for Liver Stage / Hepatocyte Toxicity: toxicity fold shift for the liver stage (hepatocyte toxicity vs liver stage EC50)
Outline: as §1

[2] = system: Stage 5 gametocytes from P. falciparum NF54; test: Late-stage (stage V) gametocyte survival assay, MitoTracker; type: cell-based, Plasmodium falciparum; details: for EC50: Plasmodium falciparum, P. falciparum NF54, 72 h, read-out: Stage 5 Gametocyte EC50; for EC50 fold shift compared to asexual stage: Stage 5 Gametocyte EC50: gametocyte EC50 / 3D7 EC50
Outline: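 Synchronized P. falciparum NF54 stage V gametocytes were exposed to compound (1.25 μM or 12.5 μM) for 72 h. MitoTracker Red CMXRos (500 nM final) was then added with saponin to lyse RBCs, and plates were imaged by high-content fluorescence. The readout was the number of metabolically active gametocytes per well.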

[3] = system: ATQ-R4 (cytb M133I and L144S, parent 3D7); test: Cross-resistance EC50 assay, ATQ-R4; type: cell-based, Plasmodium falciparum; details: Plasmodium falciparum, 3D7; SYBR green 72 hour assay; asynchronized parasites; 96-well or 1536-well format; ATQ-R4
Outline: (§2)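 Comparisons were made strictly within matched assay conditions, with 3D7 standing in where no parent existed. Inhibition came from ³H-hypoxanthine (48 h, 2.0% haematocrit) or SYBR Green (72 h, 4% haematocrit) readouts, three repeats, Grubbs' outlier removal for the latter.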

[4] = system: ATQ-R5 (cytb F267V, parent 3D7); test: Cross-resistance EC50 assay, ATQ-R5; type: cell-based, Plasmodium falciparum; details: Plasmodium falciparum, 3D7; SYBR green 72 hour assay; asynchronized parasites; 96-well or 1536-well format; ATQ-R5
Outline: as §2

[5] = system: CYTb-G131S (cytb G131S, parent Dd2); test: Cross-resistance EC50 assay, CYTb-G131S; type: cell-based, Plasmodium falciparum; details: Plasmodium falciparum; SYBR green 72 hour assay; synchronized parasites; 384-well format; strain CYTb:G131S (Dd2 parent)
Outline: as §2

hsp90 (D88Y, parent Dd2) = test: Cross-resistance EC50 assay, hsp90; type: cell-based; details: Plasmodium falciparum; SYBR green 72 hour assay; synchronized parasites; 384-well format; strain HSP90 (Dd2 parent)
Outline: as §2

Dd2 = test: Cross-resistance EC50 assay, Dd2 parent; type: cell-based, Plasmodium falciparum; details: for EC50: Plasmodium falciparum, DD2, 72 h
[6] = HepG2, 48 h, P. berghei sporozoites, HepG2, 48 h, read-out: Liver Stage EC50
[7] = read-out: Dd2 (PARENT) Average EC50
[8] = read-out: Dd2 (PARENT) EC50 (µM) Average EC50

Row | SMILES | EC50 [1, 6] [nM] | EC50 fold shift compared to asexual stage: Liver Stage EC50 [1] | Hepatocyte Toxicity (HepG2) [µM] | EC50 fold shift compared to asexual stage: Hepatocyte Toxicity (HepG2) | Liver Stage / Hepatocyte Toxicity (HepG2) | EC50 [2] [nM] | EC50 fold shift compared to asexual stage: Stage 5 Gametocyte EC50 [2] | EC50 [3] [µM] | EC50 [4] [µM] | EC50 [5] [nM] | EC50 (hsp90 (D88Y, parent Dd2)) [nM] | EC50 (Dd2; [7]) [µM] | EC50 (Dd2; [8]) [µM] | EC50 ([1]; HepG2, text values, read-out: Liver stage EC50 (PfLuc EC50)) [nM] | EC50 fold-shift, Dd2 compared with 3D7, average (Dd2; average) [×]
1 | Cc1ccc(Oc2ncccc2C(=O)Cc2cccc3cccnc23)c(C)c1 [MMV020746] | 12100 | 159.34 | 31.56 | 415.26 | 2.61 | 3790 | 49.87 | 1.97 | 1.49 | 327 | 200 | 0.241 | 1.86 | – | –
2 | COC(=O)c1ccc(C2C3=C(O)CC(c4ccc(F)cc4)CC3=Nc3ccccc3N2C(=O)c2ccccc2)cc1 (stereo not shown) [MMV011438] | 621 | 1.44 | > 50 | > 116 | > 80 | 971 | 2.25 | 0.379 | 0.34 | 336 | 127 | 0.152 | 0.655 | – | –
3 | CN(C)S(=O)(=O)c1cc(-c2ccc3nccc(-c4cccc(S(N)(=O)=O)c4)c3c2)cnc1N [MMV024038] | 10.8 | 0.05 | 0.1461 | 0.64 | 13.52 | 317 | 1.39 | 1.16 | 0.878 | 249 | 128 | 0.106 | 0.509 | 10 | –
4 | COc1ccc(-c2nc(NC(=O)Cc3ccc4c(c3)OCCO4)sc2C)cc1 [MMV019719] | 10500 | 63.78 | 20.33 | 123.96 | 1.94 | 5520 | 33.66 | 0.203 | 0.213 | 261 | 281 | 0.26 | 0.277 | – | –
5 | COCCNCC(O)Cn1c2ccc(Cl)cc2c2cc(Cl)ccc21 (stereo not shown) [MMV019017] | > 5000 | > 10 | > 5 | > 10 | – | > 1250 | > 2.6 | 1.24 | 0.842 | 929 | 614 | 0.477 | 0.998 | – | –
6 | CCOc1cc2c(cc1OCC)C(c1cc(Cl)ccc1O)NCC2 (stereo not shown) [MMV000478] | > 5000 | > 5 | > 5 | > 5 | – | > 1250 | > 1.25 | 0.833 | 0.733 | 1370 | 1050 | 0.803 | 0.843 | – | –
7 | COc1cc(-c2nc(-c3ccccc3)c(-c3ccccc3)[nH]2)cc(OC)c1O [MMV020750] | > 5000 | 23.86 | > 5 | > 15 | > 1 | > 1250 | > 3.6 | 0.912 | 0.873 | 872 | 700 | 0.678 | 0.773 | – | –
8 | OC(CNC1CCCCC1)Cn1c2ccccc2c2ccccc21 (stereo not shown) [MMV009063] | > 5000 | > 6.3 | > 5 | > 6.3 | – | > 1250 | > 1.5 | 0.668 | 0.652 | 412 | 286 | 0.188 | 0.364 | – | –
9 | CCN(CC)S(=O)(=O)c1ccc(-c2csc(Nc3ccc(C)c(C)c3)n2)cc1 [MMV009108] | 4790 | 5.15 | > 5 | > 5.3 | > 1 | 921 | 0.99 | 2.44 | 2.35 | 494 | 512 | 0.368 | 0.929 | – | –
10 | CC(C)(C)OC(=O)N1CCN(c2ccccc2NC(=O)c2cccc(C(F)(F)F)c2Oc2ccc(F)cc2)CC1 [MMV030666] | 613 | 1.26 | 10.17 | 20.93 | 16.60 | 993 | 2.04 | 0.448 | 0.251 | 389 | 321 | 0.374 | 0.255 | – | –
11 | O=C(Nc1ccsc1C(=O)NC1CCCCC1)c1ccc(F)cc1 [MMV665939] | > 5000 | – | > 5 | – | – | > 1250 | – | 3.73 | 3.43 | 2090 | 2180 | 1.96 | 2.06 | – | 2.4
12 | O=C(Nc1ccccc1O)c1ccc(Oc2cccc(C(=O)Nc3ccccc3O)c2)cc1 [MMV665888] | 648 | 0.54 | 4.362 | 3.60 | 6.73 | 2980 | 2.46 | 1.05 | 0.989 | 1010 | 843 | 0.623 | 0.66 | – | –
13 | O=C(NCC(CCCN1CCC(c2c[nH]c3ccccc23)CC1)c1ccccc1)Nc1ccc(Cl)c(Cl)c1 (stereo not shown) [MMV029272] | 1800 | 13.22 | 5.366 | 39.46 | 2.98 | 2230 | 16.40 | 9.56 | 4.49 | 920 | 710 | 0.824 | 0.285 | – | –
14 | COc1cc(-c2nc(-c3ccccc3)c(-c3ccccc3)[nH]2)ccc1OCCN(C)C [MMV027496] | 3170 | 28.59 | 13.49 | 121.53 | 4.25 | > 12500 | > 112 | 0.305 | 0.302 | 322 | 312 | 0.304 | 0.74 | – | –
15 | CCCCCCCN(Cc1ccc(OC(C)(C)C(=O)OCC)cc1)C(=O)Nc1ccc(Cl)cc1OCC [MMV021735] | 2690 | 7.03 | > 50 | > 130 | > 18 | > 11600 | > 32 | 0.056 | 0.062 | 498 | 275 | 0.258 | 1.29 | – | –
